Data as given in PubChem BioAssay (NCI).
Values joined by “and” are separate entries in the source; they are usually repeats but may differ in a detail not shown here. Equal values may be shown once.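 Interpolation was linear, between the two tested concentrations surrounding the appropriate level; five concentrations were tested over 48 hours in 96-well plates. At the GI50, growth is halved. At the TGI there is no net growth.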

How the values were obtained:
Assay in all cases: NCI-60 cell line screen, 48 h
U251 CNS = tested on: U251 CNS
SW-620 colon = tested on: SW-620 colon
CCRF-CEM leukemia = tested on: CCRF-CEM leukemia
HS 578T breast = tested on: HS 578T breast
M14 melanoma = tested on: M14 melanoma
SNB-75 CNS = tested on: SNB-75 CNS
UO-31 renal = tested on: UO-31 renal
OVCAR-3 ovarian = tested on: OVCAR-3 ovarian
HCC-2998 colon = tested on: HCC-2998 colon
MDA-N = tested on: MDA-N
MDA-MB-231 breast = tested on: MDA-MB-231 breast
SR leukemia = tested on: SR leukemia

| SMILES | TGI (U251 CNS) [µM] | TGI (SW-620 colon) [µM] | TGI (CCRF-CEM leukemia) | TGI (HS 578T breast) | TGI (M14 melanoma) | TGI (SNB-75 CNS) [µM] | TGI (UO-31 renal) [µM] | TGI (OVCAR-3 ovarian) | TGI (HCC-2998 colon) | TGI (MDA-N) | TGI (MDA-MB-231 breast) | TGI (SR leukemia) [µM] | GI50 (CCRF-CEM leukemia) | GI50 (M14 melanoma) | GI50 (OVCAR-3 ovarian) | GI50 (HCC-2998 colon) | GI50 (MDA-MB-231 breast) |
| --- | --- | --- | --- | --- | --- | --- | --- | --- | --- | --- | --- | --- | --- | --- | --- | --- | --- |
| COc1ccc(Nc2nnc(-c3nsc4ccccc34)s2)cc1 | > 100 | > 100 | > 100 µM | > 100 µM | > 100 µM | 17.3 | 35 | > 100 µM | > 100 µM | > 100 µM | > 100 µM | > 100 |  |  |  |  |  |
| O=S1(=O)N=C(SCc2ccccc2)N(c2ccccc2)c2ccncc21 | > 100 | > 100 | > 100 µM | 83.4 µM | > 100 µM | > 100 | 46.8 | > 100 µM | > 100 µM | 89.6 µM | > 100 µM | > 100 |  |  |  |  |  |
| O=C(Nc1ccc(Cl)cc1)NS(=O)(=O)c1coc2cc(F)ccc2c1=O | > 100 | > 100 | > 100 µM | > 100 µM | > 100 µM | > 100 | > 100 | > 100 µM | > 100 µM | > 100 µM | > 100 µM | > 100 |  |  |  |  |  |
| O=c1oc2ccc3ccccc3c2cc1-c1cn2ccccc2n1 | > 100 | > 100 | > 100 µM | > 100 µM | > 100 µM | > 100 | > 100 | > 100 µM | > 100 µM | > 100 µM | > 100 µM | > 100 |  |  |  |  |  |
| CNC1=C(C)C(=O)C(=O)C([C@H](C)CCC=C(C)C)=C1O | > 100 | > 100 | > 29.4 µM | > 91.8 µM | > 100 µM | > 94.4 | 49.7 | > 100 µM | 99.3 µM | > 100 µM | > 100 µM | 71 |  |  |  |  |  |
| OC1(c2cccs2)c2cccc(Cl)c2C(O)(c2cccs2)c2c(Cl)cccc21 (centres undefined) | > 100 | > 100 | > 100 µM | 33.4 µM | > 100 µM | > 100 | > 100 | > 100 µM | > 100 µM | > 100 µM | > 100 µM | > 100 |  |  |  |  |  |
| Clc1ccc(NCc2nnc(CCCCCCCCc3nnc(CNc4ccc(Cl)cc4)o3)o2)cc1 | > 100 |  | > 100 µM | > 100 µM | > 100 µM | > 100 | > 100 | > 100 µM | > 100 µM | > 100 µM | > 100 µM | > 100 |  |  |  |  |  |
| Cn1c2ccccc2c2c(-c3ccccc3)cc3c(c21)C(=O)C=CC3=O | > 9.67 | 2.21 | 0.538 µM | 9.62 µM | 3.4 µM | > 9.66 | 3.37 | 4.03 µM | > 8.05 µM | > 7.18 µM | 5.72 µM | 0.817 |  |  |  |  |  |
| C=CCN1C(=O)C=C(c2ccccc2)n2ncc3cccc1c32 | > 100 | > 100 | > 100 µM | > 100 µM | > 100 µM |  | > 100 | > 100 µM |  | > 100 µM | > 100 µM | > 100 |  |  |  |  |  |
| O=C1CCC2C(O)c3cc4c(cc3C(c3ccc5c(c3)OCO5)N12)OCO4 (centres undefined) | 60.9 | > 100 | > 100 µM | 81.7 µM | > 100 µM | 41.5 | > 100 | > 100 µM | > 100 µM | > 100 µM | > 100 µM | > 100 |  |  |  |  |  |
| N#Cc1c(-c2ccccc2)cc(-c2ccccc2)n(C2OC(CO)C(O)C(O)C2O)c1=S (centres undefined) | 35.9 | > 100 | 57.4 µM and > 100 µM | 64.4 µM and > 100 µM | 62.6 µM and > 100 µM | > 100 | > 100 | 34.3 µM and > 100 µM | 91 µM and > 100 µM | 60.5 µM and > 100 µM | 31.1 µM and 83 µM | > 100 | 12.5 µM and 29.2 µM | 25.1 µM and > 100 µM | 18 µM and 73 µM | 26.4 µM and 93.8 µM | 7.15 µM and 23.9 µM |
| COC1=C(OC)C(=O)C(Cc2c(Cl)nc3sc(C)cn23)=C(C)C1=O | 36 | 47.8 | 8.73 µM | 66.4 µM | 34.5 µM |  | 42.9 | 26.1 µM | 39 µM | 32.8 µM | 41.8 µM | 51 |  |  |  |  |  |
| O=C1/C(=C/c2cccc(Br)c2)CCc2ccccc21 | 28 | 17.9 | 13.4 µM | 24.8 µM | 29.4 µM | 30 | 26.7 | 28.6 µM |  | 24.5 µM | 35.9 µM | 18.4 |  |  |  |  |  |
| C=CCN1C(=O)/C(=C/c2ccc(OC)cc2)N=C1SC/C=C/C | > 100 | > 100 | > 100 µM | > 100 µM | > 100 µM | > 100 | > 100 | > 100 µM | > 100 µM | > 100 µM | > 100 µM | 63.8 |  |  |  |  |  |
| Cc1ccc2c(c1)[nH]c(=S)n2/C=C1\C(=O)Oc2ccccc2C1=O | > 100 | > 100 | > 100 µM | > 100 µM | > 100 µM | > 100 | > 100 | > 100 µM | > 100 µM | > 100 µM | > 100 µM | > 100 |  |  |  |  |  |
| O=C(NC1=NCC(CN2CCN(c3ccccc3)CC2)O1)Nc1ccccc1 (centres undefined) | > 100 | > 100 | > 100 µM | > 100 µM | > 100 µM |  | > 100 |  | > 100 µM | > 100 µM | > 100 µM | > 100 |  |  |  |  |  |
| O=C1c2cc(Cl)ccc2-n2cnnc2C2CSCN12 (centres undefined) | > 100 | > 100 | > 100 µM | > 100 µM | > 100 µM | > 100 | > 100 | > 100 µM | > 100 µM | > 100 µM | > 100 µM | > 100 |  |  |  |  |  |
| CCc1c2c([nH]c(=S)c1C#N)CCC2 | > 100 | > 100 | > 100 µM | > 100 µM | > 100 µM | > 100 | > 100 | > 100 µM | > 100 µM | > 100 µM | > 100 µM | > 100 |  |  |  |  |  |
